Reference: patent publication US20150315211A1, “SMALL MOLECULES FOR THE MODULATION OF MCL-1 AND METHODS OF MODULATING CELL DEATH, CELL DIVISION, CELL DIFFERENTIATION AND METHODS OF TREATING DISORDERS” (priority 2010, published 2015)
Where two headings read alike, the source gives them in different places.

Tests used:
[1] = test system: MCL-1ΔNΔC; experiment: High-throughput competitive FP binding screen, FITC-MCL-1 SAHB/MCL-1ΔNΔC interaction
[2] = target: BCL-XLΔC (Homo sapiens, UniProt Q07817); experiment: High-throughput competitive FP binding screen, FITC-BAD BH3/BCL-XLΔC interaction
BCL-XLΔC, sequence (Q07817 1-212 limits assumed, stated change not applied): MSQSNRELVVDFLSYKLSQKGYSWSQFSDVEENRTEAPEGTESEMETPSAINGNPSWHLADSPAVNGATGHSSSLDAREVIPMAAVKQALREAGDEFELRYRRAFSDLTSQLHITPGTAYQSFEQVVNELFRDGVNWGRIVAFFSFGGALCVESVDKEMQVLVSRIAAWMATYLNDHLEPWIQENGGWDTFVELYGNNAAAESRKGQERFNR

[3] = target: MCL-1ΔNΔC (Homo sapiens, UniProt Q07820); experiment: High-throughput competitive FP binding screen, FITC-MCL-1 SAHB/MCL-1ΔNΔC interaction; design: the C-terminal alpha-helix was deleted from each of these constructs; GST (N, cleaved yes); made in house
MCL-1ΔNΔC (Homo sapiens, UniProt Q07820), sequence (Q07820 172-320 limits assumed, stated change not applied): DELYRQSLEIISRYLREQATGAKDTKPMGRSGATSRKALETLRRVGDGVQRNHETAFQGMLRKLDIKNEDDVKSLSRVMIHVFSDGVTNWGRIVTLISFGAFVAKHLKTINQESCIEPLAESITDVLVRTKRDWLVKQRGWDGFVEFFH

[4] = selectivity for MCL-1ΔNΔC over BCL-XLΔC targeting (BCL-XL % Bound minus MCL-1 % Bound)
[5] = FITC-BAD BH3/BCL-XLΔC interaction pair, competitive FP screen
[6] = FITC-MCL-1 SAHB/MCL-1ΔNΔC interaction pair, competitive FP screen

Row | Structure (SMILES) | Spec Values [1] | BCL-XL % Bound [2] [%] | MCL-1% Bound [3] [%] | Spec Values [1, 4] | BCL-XL % Bound [2, 5] [%] | MCL-1% Bound [3, 6] [%]
1 | Oc1c(Cl)cc(Cl)c(Cl)c1Cc1c(O)c(Cl)cc(Cl)c1Cl [Hexachlorophene, reference compound] | 59.35 | 100.4 | 41.01 | – | – | –
2 | O=C1N=C(Nc2cccc(Cl)c2Cl)S/C1=C/c1ccco1 | – | – | – | 73.87 | 89.44 | 15.57
3 | CCN1C(=O)C(=Cc2ccc(O)c(I)c2)C(=O)N(CC)C1=S | 61.04 | 100.4 | 39.32 | – | – | –
4 | Cc1cs/c(=N\C2CCCCC2)n1/N=C/c1ccc(O)c(O)c1O | – | – | – | 106.2 | 89.95 | −16.27
5 | O=C(O)/C(S)=C\C=C\c1ccccc1 | – | – | – | 46.13 | 90.49 | 44.36
6 | CCOC(=O)c1cc(C#N)c(SCC(=O)c2cc3ccccc3oc2=O)[nH]c1=O | – | – | – | 68.9 | 100.2 | 31.28
7 | Cc1ccc2[nH]c3nc(=S)[nH]nc3c2c1 | – | – | – | 69.2 | 107.9 | 38.65
8 | O=C(CSc1ncc(C(F)(F)F)cc1Cl)NC(=O)CN1CCCC1=O | – | – | – | 55.6 | 98.97 | 43.37
9 | C=CCN1C(=O)C(C#N)=C(C)/C(=C\c2ccc(-c3cccc(C(=O)O)c3)o2)C1=O | – | – | – | 57.81 | 89.24 | 31.43
10 | NC(=O)c1c(Nc2nc3c(F)cccc3s2)sc2c1CCCC2 | – | – | – | 89.1 | 103.9 | 14.83
11 | CC1=C(C#N)C(=O)N(CCc2ccccc2)C(=O)/C1=C\c1ccc(-c2cccc(Cl)c2)o1 | – | – | – | 49.43 | 78.77 | 29.33
12 | Cc1ccc2c(c1C)NC(C(=O)O)C1CC=CC21 (stereo not shown) | – | – | – | 68.3 | 82.8 | 14.6
13 | CCN(CC)S(=O)(=O)c1ccc(-c2ccc(/C=N/N=C3\NC(=O)C(CC(=O)Nc4ccccc4)S3)o2)cc1 (stereo not shown) | – | – | – | 56.3 | 100.7 | 44.37
14 | CC1=C(C#N)C(=O)N=C(O)/C1=C\c1ccc(-c2ccc(S(N)(=O)=O)cc2)o1 [drawing 192] | – | – | – | 76.4 | 93.7 | 17.4
15 | CCCCn1c2ccccc2c2nnc(S)nc21 | – | – | – | 48.16 | 92.39 | 44.24
16 | CSc1ncc(/C=C2/C(=O)NC(=O)N(C3CCCCC3)C2=O)cn1 | 52.58 | 99 | 46.42 | – | – | –
17 | O=C1NC(=O)C(=Cc2ccc(Sc3ccc(Cl)cc3)o2)C(=O)N1 | 52.25 | 92.22 | 39.96 | – | – | –
18 | CNc1sc(C(=O)c2cccs2)c(N)c1-c1nc2ccccc2s1 | – | – | – | 48.22 | 92.47 | 44.25
19 | Cc1cc(C)c2nc(N3CCCN(C(=O)c4ccco4)CC3)c(C#N)cc2c1 | – | – | – | 80.8 | 92.2 | 11.4
20 | O=C(O)C1CCCN(c2nn3cc(-c4ccc(F)cc4)nc3s2)C1 (stereo not shown) | – | – | – | 53.98 | 82.02 | 28.04
21 | O=c1c(O)c(-c2ccc(O)c(O)c2)oc2cc(O)cc(O)c12 [drawing 15] | – | – | – | – | 105.3 | 16.69
22 | CC1=C(CC/C(C)=C/CCC2C=CC(C3=CC(=O)OC3O)OC2O)C(C)(C)CCC1 (stereo not shown) [drawing 207] | 71.82 | – | – | – | – | –
23 | O=c1oc2c(O)c(O)cc3c(=O)oc4c(O)c(O)cc1c4c23 [drawing 165] | – | – | – | 89.32 | – | 1.26
24 | CC1=C(CC/C(C)=C/CCC2C=CC(C3=CC(=O)OC3O)OC2O)C(C)(C)CCC1 (stereo not shown) [drawing 17] | 71.82 | – | – | – | – | –
25 | CCOc1cc(C(Nc2cccnc2)c2ccc3cccnc3c2O)ccc1O (stereo not shown) [drawing 35] | – | – | – | – | – | −0.3
